Molecular target: Helios (IKZF2) (Homo sapiens, UniProt Q96SW2+Q9UKS7)
Assay: Screening of Helios protein degraders using Nano-Glo HiBiT cell line (HiBiT-IKZF2)
Format: cell-based
Details: for remaining activity at 10 µM: compound 10 μM, read-out: HiBiT-IKZF2 Residual amount of Helios (%) 10 μM; for remaining activity at 10 µM / remaining activity at 1 µM: 6 hours, HiBiT-Helios knock-in Jurkat cells; for remaining activity at 1 µM: compound 1 μM, read-out: HiBiT-IKZF2 Residual amount of Helios (%) 1 μM
Experimental: To observe intracellular degradation of Helios, the Nano-Glo HiBiT detection system (Promega) was employed. […] The cells expressing Helios fused with HiBiT were validated using the Nano-Glo HiBiT detection system (Promega) according to a predetermined protocol, isolated as single cells, and cultured in complete medium to establish a monoclonal cell line.
After 6 hours, the Nano-Glo HiBiT detection reagent was added to each well in an equal volume to the cell culture medium and incubated at room temperature for 10 minutes. Following incubation, the HiBiT luminescence signal was measured using a microplate reader (Perkin Elmer).

Chain of Helios (IKZF2) (Q9UKS7 whole entry): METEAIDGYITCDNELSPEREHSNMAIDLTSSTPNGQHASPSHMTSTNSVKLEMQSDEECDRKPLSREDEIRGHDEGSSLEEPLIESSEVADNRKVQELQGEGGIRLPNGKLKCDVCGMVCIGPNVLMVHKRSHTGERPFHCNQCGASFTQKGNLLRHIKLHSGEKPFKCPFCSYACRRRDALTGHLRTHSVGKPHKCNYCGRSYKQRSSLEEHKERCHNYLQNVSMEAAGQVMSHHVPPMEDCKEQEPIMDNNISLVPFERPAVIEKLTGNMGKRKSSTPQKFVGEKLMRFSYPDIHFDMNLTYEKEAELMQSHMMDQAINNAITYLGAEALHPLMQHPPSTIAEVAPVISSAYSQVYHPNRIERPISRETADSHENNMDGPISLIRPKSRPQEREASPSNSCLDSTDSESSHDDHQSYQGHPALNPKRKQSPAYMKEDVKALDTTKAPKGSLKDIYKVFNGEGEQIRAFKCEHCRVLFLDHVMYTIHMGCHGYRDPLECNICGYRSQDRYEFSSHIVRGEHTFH
Chain of Helios (IKZF2) (Q96SW2 whole entry): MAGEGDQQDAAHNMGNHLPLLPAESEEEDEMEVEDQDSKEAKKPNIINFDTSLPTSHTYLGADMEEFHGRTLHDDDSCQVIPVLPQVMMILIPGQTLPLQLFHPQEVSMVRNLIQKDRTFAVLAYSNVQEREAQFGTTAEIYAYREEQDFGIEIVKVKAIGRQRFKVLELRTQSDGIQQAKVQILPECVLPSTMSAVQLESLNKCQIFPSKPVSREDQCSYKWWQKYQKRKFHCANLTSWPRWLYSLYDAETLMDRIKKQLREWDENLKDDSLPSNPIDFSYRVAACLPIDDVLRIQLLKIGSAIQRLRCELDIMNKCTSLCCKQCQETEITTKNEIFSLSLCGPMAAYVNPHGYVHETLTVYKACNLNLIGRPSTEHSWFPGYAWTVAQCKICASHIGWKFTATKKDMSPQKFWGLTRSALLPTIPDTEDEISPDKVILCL
Chain of Helios (IKZF2) (Q16531 whole entry partner): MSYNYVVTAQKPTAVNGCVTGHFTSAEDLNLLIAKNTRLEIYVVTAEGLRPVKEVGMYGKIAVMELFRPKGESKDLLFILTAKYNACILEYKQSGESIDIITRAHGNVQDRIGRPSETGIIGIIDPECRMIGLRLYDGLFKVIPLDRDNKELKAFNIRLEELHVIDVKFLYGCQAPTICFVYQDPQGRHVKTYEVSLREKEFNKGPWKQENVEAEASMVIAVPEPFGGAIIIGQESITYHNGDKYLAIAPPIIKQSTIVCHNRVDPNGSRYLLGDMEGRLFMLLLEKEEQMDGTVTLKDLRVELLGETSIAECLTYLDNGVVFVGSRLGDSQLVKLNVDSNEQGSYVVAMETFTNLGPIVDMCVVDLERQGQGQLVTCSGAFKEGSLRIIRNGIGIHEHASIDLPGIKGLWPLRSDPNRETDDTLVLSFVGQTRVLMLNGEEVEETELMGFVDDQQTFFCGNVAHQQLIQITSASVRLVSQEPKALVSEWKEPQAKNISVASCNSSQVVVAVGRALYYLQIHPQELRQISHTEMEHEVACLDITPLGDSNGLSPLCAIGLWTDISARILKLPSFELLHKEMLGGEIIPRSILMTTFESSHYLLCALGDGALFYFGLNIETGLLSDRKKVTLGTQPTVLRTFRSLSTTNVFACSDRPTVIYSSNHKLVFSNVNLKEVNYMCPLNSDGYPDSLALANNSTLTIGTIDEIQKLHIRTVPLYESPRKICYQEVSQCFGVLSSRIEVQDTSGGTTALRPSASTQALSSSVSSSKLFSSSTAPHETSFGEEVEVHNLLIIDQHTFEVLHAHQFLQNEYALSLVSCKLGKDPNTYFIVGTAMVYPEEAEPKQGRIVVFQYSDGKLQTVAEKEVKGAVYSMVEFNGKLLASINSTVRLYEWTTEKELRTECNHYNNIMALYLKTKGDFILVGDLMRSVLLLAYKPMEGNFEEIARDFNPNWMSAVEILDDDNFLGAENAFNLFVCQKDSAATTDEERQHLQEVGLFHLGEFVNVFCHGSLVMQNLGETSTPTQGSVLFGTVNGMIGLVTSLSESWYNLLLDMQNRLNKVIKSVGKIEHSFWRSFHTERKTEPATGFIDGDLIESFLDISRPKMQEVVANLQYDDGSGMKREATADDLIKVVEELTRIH

| remaining activity at 10 µM | remaining activity at 1 µM | IKZF2 degradation activity (in words, comment on Table 1) (as shown in Table 1) | SMILES |
| --- | --- | --- | --- |
| 40% |  |  | O=C1CCC(N2Cc3cc(C4CCN(Cc5ccccc5)CC4)ccc3C2=O)C(=O)N1 (stereo not shown) [Comparative Substance 1 (DKY709), reference compound] |
| 13% | 13.9% |  | COc1ccc2c(C)c(C(=O)N3CCC(c4ccc5c(c4)CN(C4CCC(=O)NC4=O)C5=O)CC3)[nH]c2c1 (stereo not shown) [Compound 42, 3-(5-(1-(6-methoxy-3-methyl-1H-indole-2-carbonyl)piperidin-4-yl)-1-oxoinsoindolin-2-yl)piperidine-2,6-dione] |
| 97.6% | 96% |  | O=C1CCC(N2Cc3cc(C=C4CCN(C(=O)c5cc6ccc(Cl)cc6[nH]5)CC4)ccc3C2=O)C(=O)N1 (stereo not shown) [Compound 26, 3-(5-((1-(6-chloro-1H-indole-2-carbonyl)piperidin-4-ylidene)methyl)-1-oxoinsoindolin-2-yl)piperidine-2,6-dione] |
| 106% | 104% |  | O=C1CCC(N2Cc3cc(C4CCN(C(=O)C5=Nc6cccc(Cl)c6C5)CC4)ccc3C2=O)C(=O)N1 (stereo not shown) [Compound 4, 3-(5-(1-(4-chloro-1H-indole-2-carbonyl)piperidin-4-yl)-1-oxoinsoindolin-2-yl)piperidine-2,6-dione] |
| 30.7% |  | excellent IKZF2 degradation activity | Cc1c(C(=O)N2CC(N3CCC(c4ccc5c(c4)CN(C4CCC(=O)NC4=O)C5=O)CC3)C2)[nH]c2cc(Cl)ccc12 (stereo not shown) [Compound 63, 3-(5-(1-(1-(6-chloro-3-methyl-1H-indole-2-carbonyl)azetidin-3-yl)piperidin-4-yl)-1-oxoinsoindolin-2-yl)piperidine-2,6-dione] |
| 23.8% |  |  | Cc1c(C(=O)N2CCC(N3CCC(c4ccc5c(c4)CN(C4CCC(=O)NC4=O)C5=O)CC3)CC2)[nH]c2cc(Cl)ccc12 (stereo not shown) [Compound 62, 3-(5-(1-(6-chloro-3-methyl-1H-indole-2-carbonyl)-[1,4′-bipiperidin]-4-yl)-1-oxoinsoindolin-2-yl)piperidine-2,6-dione] |
| 27.8% | 59.2% |  | CC(=O)Nc1ccc2c(C)c(C(=O)N3CCC(c4ccc5c(c4)CN(C4CCC(=O)NC4=O)C5=O)CC3)[nH]c2c1 (stereo not shown) [Compound 73, N-(2-(4-(2-(2,6-dioxopiperidin-3-yl)-1-oxoindolin-5-yl)piperidine-1-carbonyl)-3-methyl-1H-indol-6-yl)acetamide] |
| 33.6% | 42.8% |  | Cc1c(C(=O)N2CCC(c3ccc4c(c3)CN(C3CCC(=O)NC3=O)C4=O)CC2)[nH]c2cc(CN3CCNCC3)ccc12 (stereo not shown) [Compound 106, 3-(5-(1-(3-methyl-6-(piperazin-1-ylmethyl)-1H-indole-2-carbonyl)piperidin-4-yl)-1-oxoinsoindolin-2-yl)piperidine-2,6-dione dichloride] |
| 56.2% | 58% |  | COc1ccc2cc(C(=O)Nc3ccc4c(c3)CN(C3CCC(=O)NC3=O)C4=O)ccc2c1 (stereo not shown) [Comparative Substance 4, N-(2-(2,6-dioxopiperidin-3-yl)-1-oxoindolin-5-yl)-6-methoxy-2-naphthamide, reference compound] |
| 72.4% | 73.6% |  | CCc1c(C(=O)N2CCC(c3ccc4c(c3)CN(C3CCC(=O)NC3=O)C4=O)CC2)[nH]c2ccccc12 (stereo not shown) [Compound 29, 3-(5-(1-(3-ethyl-1H-indole-2-carbonyl)piperidin-4-yl)-1-oxoinsoindolin-2-yl)piperidine-2,6-dione] |
| 106% | 102% |  | O=C1CCC(N2Cc3cc(C4CCN(C(=O)c5cc6cc(Cl)ccc6[nH]5)CC4)ccc3C2=O)C(=O)N1 (stereo not shown) [Compound 3, 3-(5-(1-(5-chloro-1H-indole-2-carbonyl)piperidin-4-yl)-1-oxoinsoindolin-2-yl)piperidine-2,6-dione] |
| 73% | 66.9% |  | Cc1ccc2cc(C(=O)N3CCC(c4ccc5c(c4)CN(C4CCC(=O)NC4=O)C5=O)CC3)[nH]c2c1 (stereo not shown) [Compound 15, 3-(5-(1-(6-methyl-1H-indole-2-carbonyl)piperidin-4-yl)-1-oxoinsoindolin-2-yl)piperidine-2,6-dione] |
|  | 31.8% |  | CN1CCN(Cc2c(C(=O)N3CCC(c4ccc5c(c4)CN(C4CCC(=O)NC4=O)C5=O)CC3)[nH]c3cc(Cl)ccc23)CC1 (stereo not shown) [Compound 114, 3-(5-(1-(6-chloro-3-((4-methylpiperazin-1-yl)methyl)-1H-indole-2-carbonyl)piperidin-4-yl)-1-oxoinsoindolin-2-yl)piperidine-2,6-dione] |
| 41.8% | 22% |  | Cc1ccc2c(C)c(C(=O)N3CCC(c4ccc5c(c4)CN(C4CCC(=O)NC4=O)C5=O)CC3)[nH]c2c1 (stereo not shown) [Compound 69, 3-(5-(1-(3,6-dimethyl-1H-indole-2-carbonyl)piperidin-4-yl)-1-oxoinsoindolin-2-yl)piperidine-2,6-dione] |
| 98.4% | 89% |  | Cc1cccc2[nH]c(C(=O)N3CCC(c4ccc5c(c4)CN(C4CCC(=O)NC4=O)C5=O)CC3)cc12 (stereo not shown) [Compound 14, 3-(5-(1-(4-methyl-1H-indole-2-carbonyl)piperidin-4-yl)-1-oxoinsoindolin-2-yl)piperidine-2,6-dione] |
| 67% | 64.5% |  | O=C1CCC(N2Cc3cc(C4CCN(C(=O)c5[nH]c6ccccc6c5Cl)CC4)ccc3C2=O)C(=O)N1 (stereo not shown) [Compound 22, 3-(5-(1-(3-chloro-1H-indole-2-carbonyl)piperidin-4-yl)-1-oxoinsoindolin-2-yl)piperidine-2,6-dione] |
| 99.5% | 94.5% |  | O=C1CCC(N2Cc3cc(C4CCN(C(=O)c5cc6ccccc6[nH]5)CC4)ccc3C2=O)C(=O)N1 (stereo not shown) [Compound 9, 3-(5-(1-(1H-indole-2-carbonyl)piperidin-4-yl)-1-oxoinsoindolin-2-yl)piperidine-2,6-dione] |
| 97.3% | 94.6% |  | COc1ccc2[nH]c(C(=O)N3CCC(c4ccc5c(c4)CN(C4CCC(=O)NC4=O)C5=O)CC3)cc2c1 (stereo not shown) [Compound 10, 3-(5-(1-(5-methoxy-1H-indole-2-carbonyl)piperidin-4-yl)-1-oxoinsoindolin-2-yl)piperidine-2,6-dione] |
| 28.7% |  |  | O=Cc1c(C(=O)N2CCC(c3ccc4c(c3)CN(C3CCC(=O)NC3=O)C4=O)CC2)[nH]c2cc(Cl)ccc12 (stereo not shown) [Compound 81, 6-chloro-2-(4-(2-(2,6-dioxopiperidin-3-yl)-1-oxoindolin-5-yl)piperidine-1-carbonyl)-1H-indole-3-carbaldehyde] |
| 78.7% | 86.7% |  | COc1c(C(=O)N2CCC(c3ccc4c(c3)CN(C3CCC(=O)NC3=O)C4=O)CC2)[nH]c2ccccc12 (stereo not shown) [Compound 30, 3-(5-(1-(3-methoxy-1H-indole-2-carbonyl)piperidin-4-yl)-1-oxoinsoindolin-2-yl)piperidine-2,6-dione] |
| 98% | 99.5% |  | COc1cccc2[nH]c(C(=O)N3CCC(c4ccc5c(c4)CN(C4CCC(=O)NC4=O)C5=O)CC3)cc12 (stereo not shown) [Compound 11, 3-(5-(1-(4-methoxy-1H-indole-2-carbonyl)piperidin-4-yl)-1-oxoinsoindolin-2-yl)piperidine-2,6-dione] |
| 76.6% |  |  | N#Cc1c(C(=O)N2CCC(c3ccc4c(c3)CN(C3CCC(=O)NC3=O)C4=O)CC2)[nH]c2ccccc12 (stereo not shown) [Compound 51, 2-(4-(2-(2,6-dioxopiperidin-3-yl)-1-oxoindolin-5-yl)piperidine-1-carbonyl)-1H-indole-3-carbonitrile] |
| 78.7% |  |  | Cc1c(C(=O)N2CCC(c3ccc4c(c3)CN(C3CCC(=O)NC3=O)C4=O)C2)[nH]c2cc(Cl)ccc12 (stereo not shown) [Compound 67, 3-(5-(1-(6-chloro-3-methyl-1H-indole-2-carbonyl)pyrrolidin-3-yl)-1-oxoinsoindolin-2-yl)piperidine-2,6-dione] |
| 88.2% | 93.7% |  | O=C1CCC(N2Cc3cc(C=C4CCN(C(=O)c5cc6ccccc6[nH]5)CC4)ccc3C2=O)C(=O)N1 (stereo not shown) [Compound 24, 3-(5-((1-(1H-indole-2-carbonyl)piperidin-4-ylidene)methyl)-1-oxoinsoindolin-2-yl)piperidine-2,6-dione] |
| 88.2% | 86.7% |  | COc1ccc2cc(C(=O)N3CCC(c4ccc5c(c4)CN(C4CCC(=O)NC4=O)C5=O)CC3)[nH]c2c1 (stereo not shown) [Compound 5, 3-(5-(1-(6-methoxy-1H-indole-2-carbonyl)piperidin-4-yl)-1-oxoinsoindolin-2-yl)piperidine-2,6-dione] |
| 64.4% | 71.3% |  | Cc1c(C(=O)N2CCC(c3ccc4c(c3)CN(C3CCC(=O)NC3=O)C4=O)CC2)[nH]c2ccc(Br)cc12 (stereo not shown) [Compound 33, 3-(5-(1-(5-bromo-3-methyl-1H-indole-2-carbonyl)piperidin-4-yl)-1-oxoinsoindolin-2-yl)piperidine-2,6-dione] |
| 92.1% | 78.3% |  | O=C1CCC(N2Cc3cc(C4CCN(C(=O)c5cc6ccc(Cl)c(Cl)c6[nH]5)CC4)ccc3C2=O)C(=O)N1 (stereo not shown) [Compound 2, 3-(5-(1-(6,7-dichloro-1H-indole-2-carbonyl)piperidin-4-yl)-1-oxoinsoindolin-2-yl)piperidine-2,6-dione] |

| SMILES | remaining activity at 10 µM | remaining activity at 1 µM | IKZF2 degradation activity (in words, comment on Table 1) (as shown in Table 1) |
| --- | --- | --- | --- |
| O=C1CCC(N2Cc3cc(C4CC5CCC(C4)N5C(=O)c4cc5ccc(Cl)cc5[nH]4)ccc3C2=O)C(=O)N1 (stereo not shown) [Compound 57, 3-(5-(8-(6-chloro-1H-indole-2-carbonyl)-8-azabicyclo[3.2.1]octan-3-yl)-1-oxoinsoindolin-2-yl)piperidine-2,6-dione] | 64.5% |  |  |

Reference: patent US20260216164A1, “INDOLE COMPOUND DECOMPOSING IKZF2, AND USE THEREOF” (KOREA RESEARCH INSTITUTE OF CHEMICAL TECHNOLOGY, priority 2023, published 2026)
